This is an account of results in patent publication US20250352549A1, “SUBSTITUTED HETEROCYCLIC COMPOUND DERIVATIVES AND THEIR PHARMACEUTICAL USE” (AVELOS THERAPEUTICS INC., priority 0001, published 2025).

For the test, the target named is Wild-type human active MASTL (Homo sapiens (Human), UniProt Q96GX5). The test can be described thus: MASTL activity assay. Format: biochemical. The settings on record: ATP 18 μM, biotin tagged 40-mer ENSA peptide 10 nM, 60 minutes at room temperature, HTRF/FRET readout. On the procedure:
Wild-type human active MASTL (154 pM) was incubated in assay buffer (50 mM HEPES, 100 mM NaCl, 0.1 mM EGTA, 10 mM MgCl2, 0.01% Tween-20, 0.5 mM TCEP, pH 7.5) with biotin tagged 40-mer ENSA peptide (10 nM), test compound and ATP (18 μM) for 60 minutes at room temperature. Test compounds were assayed using a 12-point dose range consisting of a 0, DMSO control and 10 sequential doses consisting from 0.0005, 0.002, 0.005, 0.014, 0.04, 0.12, 0.37, 1.11, 3.33 and 10 μM. The DMSO concentration was the same (1%) in all samples. An equal volume of detection buffer (assay buffer+267.5 pM Ab-K, 1.25 nM SA-D2, 20 mM EDTA and 400 mM KF) was added to stop the reaction to make a final volume of 20 μl, RT for 60 mins. Activity was measured using a plate reader (PerkinElmer EnSight) by the FRET signal generated between SA-D2 (streptavidin-D2) and Ab-K (anti-phospho-Serine 67 ENSA antibody (rabbit polyclonal, using standard techniques by a commercial supplier) conjugated to Cryptate). HTRF reagents (CisBio) were prepared as per the manufacturer recommendations. The 40-mer biotin-tagged ENSA peptide (synthesised by Bionics) used was based around Serine 67 on ENSA ([…]).

Wild-type human active MASTL, sequence (Q96GX5 whole entry): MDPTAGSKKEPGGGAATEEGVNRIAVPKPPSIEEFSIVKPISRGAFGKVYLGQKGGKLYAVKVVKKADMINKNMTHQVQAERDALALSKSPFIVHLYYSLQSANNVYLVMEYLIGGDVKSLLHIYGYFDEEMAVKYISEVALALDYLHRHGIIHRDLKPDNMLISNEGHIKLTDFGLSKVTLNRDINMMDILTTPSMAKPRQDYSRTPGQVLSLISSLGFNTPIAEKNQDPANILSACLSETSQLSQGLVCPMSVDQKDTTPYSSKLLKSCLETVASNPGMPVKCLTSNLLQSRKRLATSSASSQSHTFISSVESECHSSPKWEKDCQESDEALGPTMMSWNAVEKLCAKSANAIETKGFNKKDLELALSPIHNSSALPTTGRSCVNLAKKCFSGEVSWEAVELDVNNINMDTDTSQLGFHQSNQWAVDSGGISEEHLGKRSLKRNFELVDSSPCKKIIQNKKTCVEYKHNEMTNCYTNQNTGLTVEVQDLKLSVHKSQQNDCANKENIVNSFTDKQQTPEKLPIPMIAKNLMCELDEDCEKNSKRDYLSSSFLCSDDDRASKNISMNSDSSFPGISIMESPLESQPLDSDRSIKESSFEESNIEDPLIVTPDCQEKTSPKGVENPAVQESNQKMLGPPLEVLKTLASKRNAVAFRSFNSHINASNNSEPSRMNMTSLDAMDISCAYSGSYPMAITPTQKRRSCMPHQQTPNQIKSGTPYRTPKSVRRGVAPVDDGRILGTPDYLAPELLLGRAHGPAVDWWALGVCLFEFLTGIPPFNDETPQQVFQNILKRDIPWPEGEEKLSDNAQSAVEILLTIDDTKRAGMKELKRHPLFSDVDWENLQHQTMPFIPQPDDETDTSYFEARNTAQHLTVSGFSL

Consider `CNc1nc(N[C@H](c2c[nH]c(C(F)(F)F)n2)C(C)C)nc(-c2ccc3cnc(C)n3c2)n1` (single isomer, unassigned) [Example 149B, N2-methyl-6-(3-methylimidazo[1,5-a]pyridin-6-yl)-N4-[(1S or 1R)-2-methyl-1-[2-(trifluoromethyl)-1H-imidazol-4-yl]propyl]-1,3,5-triazine-2,4-diamine], for which the IC50 lay in the range of 1 to 500 nM.

`Cc1ncc2ccc(-c3nc(N)nc(N[C@H](CC4CC4)c4c[nH]c(C(F)(F)F)n4)n3)cn12` (single isomer, unassigned) [Example 7A, N4-[(1S or 1R)-2-cyclopropyl-1-[2-(trifluoromethyl)-1H-imidazol-4-yl]ethyl]-6-(3-methylimidazo[1,5-a]pyridin-6-yl)-1,3,5-triazine-2,4-diamine] registered a half-maximal inhibitory concentration (IC50) of 1 to 500 nM. In turn, `Cc1ncc2ccc(-c3nc(N)nc(NC[C@H](O)c4cccc(Cl)c4Cl)n3)cn12` (single isomer, unassigned) [Example 146A, (1S or 1R)-[[4-amino-6-(3-methylimidazo[1,5-a]pyridin-6-yl)-1,3,5-triazin-2-yl]amino]-1-(2,3-dichlorophenyl) ethanol] yielded a 50% inhibitory concentration (IC50) of 1 to 500 nM. On to `Cc1nc([C@@H](Nc2nc(N)nc(-c3ccc4cnc(C)n4c3)n2)C(C)C)c[nH]1` (single isomer, unassigned) [Example 155B, 6-(3-methylimidazo[1,5-a]pyridin-6-yl)-N4-[(1S or 1R)-2-methyl-1-(2-methyl-1H-imidazol-4-yl)propyl]-1,3,5-triazine-2,4-diamine], for which the IC50 was 1 to 500 nM. As for `Cc1ncc2ccc(-c3nc(N)nc(NC(c4c[nH]c(C(F)(F)F)n4)C4CCCCC4)n3)cn12` (single isomer, unassigned) [Example 153B, N4-[(S or R)-cyclohexyl-[2-(trifluoromethyl)-1H-imidazol-4-yl]methyl]-6-(3-methylimidazo[1,5-a]pyridin-6-yl)-1,3,5-triazine-2,4-diamine], the concentration for half-maximal inhibition (IC50) lay within 1 to 500 nM. In turn, `Cc1ncc2ccc(-c3nc(N)nc(NC[C@@H](O)c4cccc(Cl)c4Cl)n3)cn12` (single isomer, unassigned) [Example 146B, (1S or 1R)-[[4-amino-6-(3-methylimidazo[1,5-a]pyridin-6-yl)-1,3,5-triazin-2-yl]amino]-1-(2,3-dichlorophenyl) ethanol] registered a half-maximal inhibitory concentration (IC50) of 1 to 500 nM. Under `CC(C)CC(Nc1nc(N)nc(-c2ccc3cnn(C)c3c2)n1)c1c[nH]c(C(F)(F)F)n1` (single isomer, unassigned) [Example 180A, 6-(1-methylindazol-6-yl)-N4-[(1R or 1S)-3-methyl-1-[2-(trifluoromethyl)-1H-imidazol-4-yl]butyl]-1,3,5-triazine-2,4-diamine] stands over 1000 nM; under `Cc1ncc2ccc(-c3nc(N)nc(NC(c4c[nH]c(C(F)(F)F)n4)C4CCCCC4)n3)cn12` (single isomer, unassigned) [Example 153A, N4-[(S or R)-cyclohexyl-[2-(trifluoromethyl)-1H-imidazol-4-yl]methyl]-6-(3-methylimidazo[1,5-a]pyridin-6-yl)-1,3,5-triazine-2,4-diamine], 1 to 500 nM; under `CC[C@@H](Nc1nc(N)nc(-c2ccc3cnc(C)n3c2)n1)c1ccc(F)nc1` (single isomer, unassigned) [Example 141A, N2-[(1R or 1S)-1-(6-fluoro-3-pyridyl)propyl]-6-(3-methylimidazo[1,5-a]pyridin-6-yl)-1,3,5-triazine-2,4-diamine], 500 to 1000 nM. The compound `CNc1nc(NCC(O)c2cccc(Cl)c2Cl)cc(-c2ccc3cnc(C)n3c2)n1` (single isomer, unassigned) [Example 143B, (1R or 1S)-1-(2,3-dichlorophenyl)-2-[[2-(methylamino)-6-(3-methylimidazo[1,5-a]pyridin-6-yl)pyrimidin-4-yl]amino]ethanol] had an IC50 of over 1000 nM. `Cc1ncc2ccc(-c3nc(N)nc(N[C@@H](c4c[nH]c(C(F)(F)F)n4)C(C)C)n3)cn12` (single isomer, unassigned) [Example 142A, 6-(3-methylimidazo[1,5-a]pyridin-6-yl)-N2-[(1R or 1S)-2-methyl-1-[2-(trifluoromethyl)-1H-imidazol-4-yl]propyl]-1,3,5-triazine-2,4-diamine] showed an IC50 of 1 to 500 nM. The same measure for `CNc1nc(N[C@@H](c2c[nH]c(C(F)(F)F)n2)C(C)C)nc(-c2ccc3cnc(C)n3c2)n1` (single isomer, unassigned) [Example 149A, N2-methyl-6-(3-methylimidazo[1,5-a]pyridin-6-yl)-N4-[(1S or 1R)-2-methyl-1-[2-(trifluoromethyl)-1H-imidazol-4-yl]propyl]-1,3,5-triazine-2,4-diamine]: 1 to 500 nM; for `Cc1ncc2ccc(-c3nc(N)nc(N[C@H](CC(C)C)c4c[nH]c(C(F)(F)F)n4)n3)cn12` (single isomer, unassigned) [Example 152A, 6-(3-methylimidazo[1,5-a]pyridin-6-yl)-N4-[(1S or 1R)-3-methyl-1-[2-(trifluoromethyl)-1H-imidazol-4-yl]butyl]-1,3,5-triazine-2,4-diamine]: 1 to 500 nM. The same measure for `Cc1ncc2ccc(-c3nc(N)nc(N[C@@H](CC(C)C)c4c[nH]c(C(F)(F)F)n4)n3)cn12` (single isomer, unassigned) [Example 152B, 6-(3-methylimidazo[1,5-a]pyridin-6-yl)-N4-[(1S or 1R)-3-methyl-1-[2-(trifluoromethyl)-1H-imidazol-4-yl]butyl]-1,3,5-triazine-2,4-diamine]: 1 to 500 nM; for `Cc1ncc2ccc(-c3nc(N)nc(N[C@H](c4ccc(F)cn4)C(C)C)n3)cn12` (single isomer, unassigned) [Example 136B, N2-[(1R or 1S)-1-(5-fluoro-2-pyridyl)-2-methyl-propyl]-6-(3-methylimidazo[1,5-a]pyridin-6-yl)-1,3,5-triazine-2,4-diamine]: over 1000 nM. Under `Cc1ncc2ccc(-c3nc(N)nc(N[C@@H](CC4CC4)c4c[nH]c(C(F)(F)F)n4)n3)cn12` (single isomer, unassigned) [Example 7B, N4-[(1S or 1R)-2-cyclopropyl-1-[2-(trifluoromethyl)-1H-imidazol-4-yl]ethyl]-6-(3-methylimidazo[1,5-a]pyridin-6-yl)-1,3,5-triazine-2,4-diamine] stands 1 to 500 nM. `CNc1nc(N[C@@H](c2ccn(C(F)F)n2)C(C)C)nc(-c2ccc3cnn(C)c3c2)n1` (single isomer, unassigned) [Example 29A, N4-[(1S or 1R)-1-[1-(difluoromethyl)pyrazol-3-yl]-2-methyl-propyl]-N2-(trideuteriomethyl)-6-[1-(trideuteriomethyl)indazol-6-yl]-1,3,5-triazine-2,4-diamine]: the IC50 was 1 to 500 nM.

As for `CC[C@H](Nc1nc(N)nc(-c2ccc3cnc(C)n3c2)n1)c1ccc(F)nc1` (single isomer, unassigned) [Example 141B, N2-[(1R or 1S)-1-(6-fluoro-3-pyridyl)propyl]-6-(3-methylimidazo[1,5-a]pyridin-6-yl)-1,3,5-triazine-2,4-diamine], the IC50 was in the range of 500 to 1000 nM. In turn, `CNc1nc(N[C@H](c2ccn(C(F)F)n2)C(C)C)nc(-c2ccc3cnn(C)c3c2)n1` (single isomer, unassigned) [Example 29B, N4-[(1S or 1R)-1-[1-(difluoromethyl)pyrazol-3-yl]-2-methyl-propyl]-N2-(trideuteriomethyl)-6-[1-(trideuteriomethyl)indazol-6-yl]-1,3,5-triazine-2,4-diamine] gave an IC50 of over 1000 nM.

`CNc1nc(NC[C@H](O)c2cccc(Cl)c2Cl)cc(-c2ccc3cnc(C)n3c2)n1` (single isomer, unassigned) [Example 143A, (1R or 1S)-1-(2,3-dichlorophenyl)-2-[[2-(methylamino)-6-(3-methylimidazo[1,5-a]pyridin-6-yl)pyrimidin-4-yl]amino]ethanol] returned an IC50 of 1 to 500 nM.

Turning to `CC(C)CC(Nc1nc(N)nc(-c2ccc3cnn(C)c3c2)n1)c1c[nH]c(C(F)(F)F)n1` (single isomer, unassigned) [Example 180B, 6-(1-methylindazol-6-yl)-N4-[(1R or 1S)-3-methyl-1-[2-(trifluoromethyl)-1H-imidazol-4-yl]butyl]-1,3,5-triazine-2,4-diamine], the IC50 fell in the range of 1 to 500 nM. Under `Cc1ncc2ccc(-c3nc(N)nc(N[C@H](c4c[nH]c(C(F)(F)F)n4)C(C)C)n3)cn12` (single isomer, unassigned) [Example 142B, 6-(3-methylimidazo[1,5-a]pyridin-6-yl)-N2-[(1R or 1S)-2-methyl-1-[2-(trifluoromethyl)-1H-imidazol-4-yl]propyl]-1,3,5-triazine-2,4-diamine] stands 1 to 500 nM. Under `Cc1ncc2ccc(-c3nc(N)nc(N[C@@H](c4ccc(F)cn4)C(C)C)n3)cn12` (single isomer, unassigned) [Example 136A, N2-[(1R or 1S)-1-(5-fluoro-2-pyridyl)-2-methyl-propyl]-6-(3-methylimidazo[1,5-a]pyridin-6-yl)-1,3,5-triazine-2,4-diamine] stands 1 to 500 nM.

By IC50 is commonly meant the midpoint of a concentration-inhibition curve. Read a high IC50 as weaker potency in that assay.
